Source: patent US9732094B2, “Arylquinazolines” (Merck Patent GmbH, priority 2013, dated 2017)
Where two headings read alike, the source gives them in different places.

Columns and labels:
[1] = target: DNA-PK phosphorylation at serine 2056 (Homo sapiens (Human), UniProt P78527); assay: DNA-PK phosphorylation at serine 2056 (cellular), bleomycin-treated HCT116 cells, ELISA; type: cell-based; details: read-out: IC50 pDNA-PK
Description: HCT116 cells were cultivated at 37° C. and 10% CO2 in MEM alpha medium with 10% of foetal calf serum and 2 mM glutamine. The cells were detached from the base of the culture vessels with the aid of trypsin/EDTA, centrifuged off in centrifuge tubes, taken up in fresh medium, and the cell density was determined. 100,000 cells were sown in 1 ml of culture medium per cavity of a 24-well cell culture plate and cultivated overnight. Next day, 10 μM bleomycin (DNA intercalator and inductor of DNA double-strand breaks) and test substances in fresh culture medium were added to the cells, and these were cultivated for a further six hours. […] The 96-well ELISA plates were subsequently treated with a detection antibody (Abcam ab79444: total DNA-PK) and a streptavidin-HRP conjugate. The development of the enzymatic reaction was carried out with the aid of a chemiluminescent reagent, the chemiluminescence was measured with the aid of a Mithras LB940. The signals with the phospho-DNA-PK-specific antibody were standardised to the signal with the antibody against the total protein DNA-PKc. […] The DMSO control was used as blank.

DNA-PK = DNA-PK (Homo sapiens (Human), UniProt P78527); assay: DNA-PK assay (biochemical), flashplate 33P-ATP kinase assay
Description: A) DNA-PK Assay (Biochemical)
The kinase assay was carried out in streptavidin-coated […] microtitre flashplates. […] The reaction was stopped using 50 μl/well of 200 mM EDTA. After incubation for a further 30 min at room temperature, the liquid was removed. Each well was washed three times with 100 μl of 0.9% saline solution. A nonspecific reaction (blank value) was determined using 10 μM of an innate kinase inhibitor. The radioactivity measurement was carried out using a TopCount. IC50 values were calculated in RS1.

[2] = cellular DNA-PK phosphorylation at serine 2056, HCT116
[3] = cellular, HCT116 cells, 10 μM bleomycin, six hours

| Compound | IC50 ([1]; Table 5, HCT116 cells) | IC50 (DNA-PK; Table 5) | IC50 [1, 2] | IC50 (DNA-PK; biochemical DNA-PK assay) | other results |
| --- | --- | --- | --- | --- | --- |
| OC(c1nccs1)c1cc(-c2ncnc3cc(N4CCOCC4)ccc23)ccc1F (stereo not shown) [Example 170, [2-Fluoro-5-(7-morpholin-4-yl-quinazolin-4-yl)-phenyl]thiazol-2-yl-methanol] | 5000 to 10000 nM | 7 to 30 nM | – | – | – |
| OC(c1ccc(F)c(-c2ncnc3cc(N4CCOCC4)ccc23)c1)c1nccs1 (stereo not shown) [Example 213, [4-Fluoro-3-(7-morpholin-4-yl-quinazolin-4-yl)-phenyl]thiazol-2-ylmethanol] | – | – | – | – | IC50 [1, 3]: 5000 to 10000 nM; IC50 (DNA-PK; enzymatic, 5 μM ATP): < 3 nM |
| OC(c1cccnn1)c1cc(-c2ncnc3cc(N4CCOCC4)ccc23)c(F)cc1Cl (single isomer, unassigned) [Example 30, [2-Chloro-4-fluoro-5-(7-morpholin-4-yl-quinazolin-4-yl)phenyl]-pyridazin-3-ylmethanol] | – | – | – | – | IC50 [1, 3]: < 500 nM; IC50 (DNA-PK; enzymatic, 5 μM ATP): < 3 nM |
| c1nc(N2CCCCC2)c2scc(N3CCOCC3)c2n1 [Example 174, 7-Morpholin-4-yl-4-piperidin-1-yl-thieno[3,2-d}-pyrimidine] | 10000 to 30000 nM | 7 to 30 nM | – | – | – |
| OC(c1cccc(-c2ncnc3cc(N4CCOCC4)sc23)c1)c1nccs1 (stereo not shown) [Example 182, [3-(6-Morpholin-4-ylthieno[3,2-d}-pyrimidin-4-yl)-phenyl]thiazol-2-yl-methanol] | 5000 to 10000 nM | 7 to 30 nM | – | – | – |
| OC(c1cccc(-c2ncnc3cc(N4CCOCC4)ccc23)c1)(c1nccs1)C(F)(F)F (stereo not shown) [Example 172, 2,2,2-Trifluoro-1-[3-(7-morpholin-4-yl-quinazolin-4-yl)-phenyl]-1-thiazol-2-ylethanol] | 10000 to 30000 nM | 7 to 30 nM | – | – | – |
| OC(c1ccc(F)c(-c2ncnc3cc(N4CCOCC4)ccc23)c1)c1nccs1 (stereo not shown) [Example 212, [4-Fluoro-3-(7-morpholin-4-yl-quinazolin-4-yl)-phenyl]thiazol-2-ylmethanol] | – | – | – | – | IC50 [1, 3]: 10000 to 30000 nM; IC50 (DNA-PK; enzymatic, 5 μM ATP): < 3 nM |
| OC(c1cc(F)cc(-c2ncnc3cc(N4CCOCC4)ccc23)c1)c1nccs1 (stereo not shown) [Example 169, [3-Fluoro-5-(7-morpholin-4-yl-quinazolin-4-yl)-phenyl]thiazol-2-yl-methanol] | 10000 to 30000 nM | 7 to 30 nM | – | – | – |
| OC(c1ccc(F)c(-c2ncnc3cc(N4CCOCC4)ccc23)c1)c1nccnc1I (stereo not shown) [Example 462, [4-Fluoro-3-(7-morpholin-4-yl-quinazolin-4-yl)-phenyl]-(3-iodo-pyrazin-2-yl)-methanol] | – | – | < 500 nM | < 3 nM | – |

Now from value to compound, other results behind:

| IC50 ([1]; Table 5, HCT116 cells) | IC50 (DNA-PK; Table 5) | IC50 [1, 2] | IC50 (DNA-PK; biochemical DNA-PK assay) | Compound | other results |
| --- | --- | --- | --- | --- | --- |
| – | – | 500 to 5000 nM | < 3 nM | OC(c1cc(-c2ncnc3cc(N4CCOCC4)ccc23)c(F)cc1F)c1ncnc2ccoc12 (stereo not shown) [Example 446, [2,4-Difluoro-5-(7-morpholin-4-yl-quinazolin-4-yl)-phenyl]furo[3,2-d}-pyrimidin-4-yl-methanol] | – |
| – | – | < 500 nM | 3 to 7 nM | OC(c1cc(-c2ncnc3cc(N4CCOCC4)ccc23)c(F)cc1F)c1ncnc2ccoc12 (stereo not shown) [Example 445, [2,4-Difluoro-5-(7-morpholin-4-yl-quinazolin-4-yl)-phenyl]furo[3,2-d}-pyrimidin-4-yl-methanol] | – |
| – | – | 500 to 5000 nM | 7 to 30 nM | Cn1cnc2ncnc(C(O)c3cc(-c4ncnc5cc(N6CCOCC6)ccc45)c(F)cc3F)c21 (stereo not shown) [Example 431, [2,4-Difluoro-5-(7-morpholin-4-yl-quinazolin-4-yl)-phenyl]-(7-methyl-7H-purin-6-yl)-methanol] | – |
| – | – | 5000 to 10000 nM | 3 to 7 nM | Cn1cnc2ncnc(C(O)c3cc(-c4ncnc5cc(N6CCOCC6)ccc45)c(F)cc3F)c21 (stereo not shown) [Example 386, [2,4-Difluoro-5-(7-morpholin-4-yl-quinazolin-4-yl)-phenyl]-(7-methyl-7H-purin-6-yl)-methanol] | – |
| – | – | 5000 to 10000 nM | 7 to 30 nM | COc1nccnc1C(O)c1ccc(F)c(-c2ncnc3cc(N4CCOCC4)cc(F)c23)c1 (single isomer, unassigned) [Example 253, [4-Fluoro-3-(5-fluoro-7-morpholin-4-yl-quinazolin-4-yl)-phenyl]-(3-methoxy-pyrazin-2-yl)-methanol] | – |
